Columns and labels:
[1] = tested on: I2; assay: Cerep binding, antagonist radioligand; conditions: 5 µM
[2] = tested on: Ca2+ channel (L, diltiazem site) (benzothiazepines); assay: Cerep binding, antagonist radioligand; conditions: 5 µM
[3] = target: T1, 5-HT transporter (h) (Homo sapiens, UniProt P31645); assay: Cerep binding, antagonist radioligand; conditions: read-out: % Inhibition of Control Specific Binding
T1 construct: purchased Eurofins Pharma Discovery Services (CEREP diversity panel)

[4] = target: T2, beta 2 (h) (Homo sapiens, UniProt P07550); assay: Cerep binding, agonist radioligand; conditions: read-out: % Inhibition of Control Specific Binding
T2 construct: purchased Eurofins Pharma Discovery Services (CEREP diversity panel)

[5] = tested on: adenylyl cyclase (activator effect); assay: Cerep enzyme and cell-based assays; assay type: biochemical; conditions: 5 µM
[6] = target: T3, MC4 (h) (Homo sapiens, UniProt P32245); assay: Cerep binding, agonist radioligand; conditions: read-out: % Inhibition of Control Specific Binding
T3 construct: purchased Eurofins Pharma Discovery Services (CEREP diversity panel)

[7] = target: T4, CB2 (h) (Homo sapiens, UniProt P34972); assay: Cerep binding, agonist radioligand; conditions: read-out: % Inhibition of Control Specific Binding
T4 construct: purchased Eurofins Pharma Discovery Services (CEREP diversity panel)

[8] = tested on: alpha 2 (non-selective); assay: Cerep binding, antagonist radioligand; conditions: 5 µM
[9] = target: T5, H1 (h) (Homo sapiens, UniProt P35367); assay: Cerep binding, antagonist radioligand; conditions: read-out: % Inhibition of Control Specific Binding
T5 construct: purchased Eurofins Pharma Discovery Services (CEREP diversity panel)

[10] = tested on: sigma (non-selective) (h); assay: Cerep binding, agonist radioligand; design: species or system human; conditions: 5 µM
[11] = target: T6, PDE1B (h) (Homo sapiens, UniProt Q01064); assay: Cerep enzyme and cell-based assays; assay type: biochemical; conditions: read-out: % Inhibition of Control Values
T6 construct: purchased Eurofins Pharma Discovery Services (CEREP diversity panel)

[12] = target: T7, 5-lipoxygenase (h) (Homo sapiens, UniProt P09917); assay: Cerep enzyme and cell-based assays; assay type: biochemical; conditions: read-out: % Inhibition of Control Values
T7 construct: purchased Eurofins Pharma Discovery Services (CEREP diversity panel)

[13] = target: T8, NK2 (h) (Homo sapiens, UniProt P21452); assay: Cerep binding, agonist radioligand; conditions: read-out: % Inhibition of Control Specific Binding
T8 construct: purchased Eurofins Pharma Discovery Services (CEREP diversity panel)

[14] = target: T9, NOP (ORL1) (h) (Homo sapiens, UniProt P41146); assay: Cerep binding, agonist radioligand; conditions: read-out: % Inhibition of Control Specific Binding
T9 construct: purchased Eurofins Pharma Discovery Services (CEREP diversity panel)

[15] = target: T10, Eg5 (h) (Homo sapiens, UniProt P52732); assay: Cerep enzyme and cell-based assays; assay type: biochemical; conditions: read-out: % Inhibition of Control Values
T10 construct: Eurofins Pharma Discovery Services (CEREP diversity panel, outsourced assay)

[16] = target: T11, dopamine transporter (h) (Homo sapiens, UniProt Q01959); assay: Cerep binding, antagonist radioligand; conditions: read-out: % Inhibition of Control Specific Binding
T11 construct: purchased Eurofins Pharma Discovery Services (CEREP diversity panel)

[17] = target: T12, AR (h) (Homo sapiens, UniProt P10275, T878A); assay: Cerep binding, agonist radioligand; conditions: read-out: % Inhibition of Control Specific Binding
T12 construct: purchased Eurofins Pharma Discovery Services (CEREP diversity panel)

[18] = target: T13, V1a (h) (Homo sapiens, UniProt P37288); assay: Cerep binding, agonist radioligand; conditions: read-out: % Inhibition of Control Specific Binding
T13 construct: purchased Eurofins Pharma Discovery Services (CEREP diversity panel)

[19] = tested on: Cl- channel (GABA-gated); assay: Cerep binding, antagonist radioligand; conditions: 5 µM
[20] = target: T14, PPARgamma (h) (Homo sapiens, UniProt P37231); assay: Cerep binding, agonist radioligand; conditions: read-out: % Inhibition of Control Specific Binding
T14 construct: purchased Eurofins Pharma Discovery Services (CEREP diversity panel)

[21] = target: T15, norepinephrine transporter (h) (Homo sapiens, UniProt P23975); assay: Cerep binding, antagonist radioligand; conditions: read-out: % Inhibition of Control Specific Binding
T15 construct: purchased Eurofins Pharma Discovery Services (CEREP diversity panel)

[22] = target: T16, CCK1 (CCKA) (h) (Homo sapiens, UniProt P32238); assay: Cerep binding, agonist radioligand; conditions: read-out: % Inhibition of Control Specific Binding
T16 construct: purchased Eurofins Pharma Discovery Services (CEREP diversity panel)

[23] = target: T17, D1 (h) (Homo sapiens, UniProt P21728); assay: Cerep binding, antagonist radioligand; conditions: read-out: % Inhibition of Control Specific Binding
T17 construct: purchased Eurofins Pharma Discovery Services (CEREP diversity panel)

[24] = target: T18, A1 (h) (Homo sapiens, UniProt P30542); assay: Cerep binding, antagonist radioligand; conditions: read-out: % Inhibition of Control Specific Binding
T18 construct: purchased Eurofins Pharma Discovery Services (CEREP diversity panel)

[25] = tested on: Panc-Tu-I cells; assay: RTCA growth profile; assay type: cell-based, human; conditions: 5 μM
Description: RTCA was performed using 16-well E-plates on the Dual Plate xCELLigence instrument (Roche Applied Science, Indianapolis, IN). This system measures a dimensionless parameter called cell index, which evaluates the ionic environment at an electrode/solution interface and integrates information on cell number. Depending on the cell line 5 × 10^3–1 × 10^4 cells were plated in each well of the 16-well plates in 200 μl of cell culture medium. After seeding, cells were allowed to settle for 30 min at room temperature before being inserted into the xCELLigence instrument in a humidified incubator at 37 °C with 10% CO2. For RTCA experiments assaying cells stably expressing the inducible shRNA transgene, cells were seeded onto the E-plates in medium supplemented with 200 ng ml^−1 doxycycline. […] The small-molecule inhibitors were added at indicated time points and in the indicated concentrations. […] All assays were performed in duplicates. The cell index was normalized to 1 at the time point of drug administration.

[26] = tested on: Erk phosphorylation; assay: western blot, Erk phosphorylation in Panc-Tu-I; conditions: 1 h, 5 μM Deltarasin or 20 μM Deltazinone 1, 5 min EGF
Description: To examine whether PDEδ inhibition by Deltarasin and Deltazinone 1 downregulates the signal transduction via these pathways, we examined the phosphorylation of extracellular signal regulated kinase (Erk) and S6 Ribosomal Protein (S6P) in the oncogenic KRas-dependent Panc-Tu-1 and KRas-independent PANC-1 cells. […] Cells were lysed with RIPA-buffer (20 mM Tris pH 7.5, 150 mM NaCl, 0.5 mM Na2 EDTA, 1 % sodium deoxycholate, 0.1% sodium dodecyl sulfate, 1% IGEPAL supplemented with Complete Mini EDTA-free protease inhibitor (Roche Applied Science) and 1% phosphatase inhibitor cocktail 2 and 3 (P5726 and P0044, Sigma Aldrich), scraped off after 5 min on ice and centrifuged at 14,000g for 20 min at 4 °C. SDS–polyacrylamide gel electrophoresis was carried out with 10–25 μg of whole-cell lysate from each sample. The gels were blotted onto polyvinylidene difluoride membrane (Millipore) and blocked for 1 h at room temperature. […] Blots were scanned on a LI-COR Odyssey imaging system.
Western blots were quantified using ImageJ. The background of the blots was subtracted by applying the rolling ball subtraction with a radius of 50 pixels. Afterwards the integrated intensity of the bands was measured.

[27] = tested on: AMPA; assay: Cerep binding, agonist radioligand; conditions: 5 µM
[28] = tested on: M (non-selective); assay: Cerep binding, antagonist radioligand; conditions: 5 µM
[29] = target: T19, NK1 (h) (Homo sapiens, UniProt P25103); assay: Cerep binding, agonist radioligand; conditions: read-out: % Inhibition of Control Specific Binding
T19 construct: purchased Eurofins Pharma Discovery Services (CEREP diversity panel)

[30] = tested on: COMT (catechol-O-methyl transferase); assay: Cerep enzyme and cell-based assays; assay type: biochemical; conditions: 5 µM
[31] = tested on: BZD (central); assay: Cerep binding, agonist radioligand; conditions: 5 µM
[32] = target: T20, PDE2A1 (h) (Homo sapiens, UniProt O00408); assay: Cerep enzyme and cell-based assays; assay type: biochemical; conditions: read-out: % Inhibition of Control Values
T20 construct: Eurofins Pharma Discovery Services (CEREP diversity panel, outsourced assay)

[33] = target: T21, H2 (h) (Homo sapiens, UniProt P25021); assay: Cerep binding, antagonist radioligand; conditions: read-out: % Inhibition of Control Specific Binding
T21 construct: purchased Eurofins Pharma Discovery Services (CEREP diversity panel)

[34] = target: T22, ETA (h) (Homo sapiens, UniProt P25101); assay: Cerep binding, agonist radioligand; conditions: read-out: % Inhibition of Control Specific Binding
T22 construct: purchased Eurofins Pharma Discovery Services (CEREP diversity panel)

[35] = target: T23, BLT1 (LTB4) (h) (Homo sapiens, UniProt Q15722); assay: Cerep binding, agonist radioligand; conditions: read-out: % Inhibition of Control Specific Binding
T23 construct: purchased Eurofins Pharma Discovery Services (CEREP diversity panel)

[36] = target: T24, ETB (h) (Homo sapiens, UniProt P24530); assay: Cerep binding, agonist radioligand; conditions: read-out: % Inhibition of Control Specific Binding
T24 construct: purchased Eurofins Pharma Discovery Services (CEREP diversity panel)

[37] = tested on: KATP channel; assay: Cerep binding, antagonist radioligand; conditions: 5 µM
[38] = target: T25, sirtuin 2 (h) (inhibitor effect) (Homo sapiens, UniProt Q8IXJ6); assay: Cerep enzyme and cell-based assays; assay type: biochemical; conditions: read-out: % Inhibition of Control Values
T25 construct: Eurofins Pharma Discovery Services (CEREP diversity panel, outsourced assay)

[39] = tested on: Panc-Tu-I cells; assay: long-term time-lapse microscopy; conditions: 72 h, 5 μM Deltarasin or 10 μM Deltazinone 1

T19 sequence (P25103 whole entry): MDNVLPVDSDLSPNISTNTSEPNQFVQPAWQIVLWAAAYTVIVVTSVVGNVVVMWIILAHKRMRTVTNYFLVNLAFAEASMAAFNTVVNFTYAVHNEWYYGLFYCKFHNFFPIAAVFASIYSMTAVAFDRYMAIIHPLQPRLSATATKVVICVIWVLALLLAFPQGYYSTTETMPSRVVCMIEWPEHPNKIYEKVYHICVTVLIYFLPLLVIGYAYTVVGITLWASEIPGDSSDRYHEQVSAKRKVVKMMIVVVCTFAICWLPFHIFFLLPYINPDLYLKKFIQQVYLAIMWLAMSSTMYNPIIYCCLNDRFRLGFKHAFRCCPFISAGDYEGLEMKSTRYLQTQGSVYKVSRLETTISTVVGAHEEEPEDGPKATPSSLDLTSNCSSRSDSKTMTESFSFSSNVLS
T1 sequence (P31645 whole entry): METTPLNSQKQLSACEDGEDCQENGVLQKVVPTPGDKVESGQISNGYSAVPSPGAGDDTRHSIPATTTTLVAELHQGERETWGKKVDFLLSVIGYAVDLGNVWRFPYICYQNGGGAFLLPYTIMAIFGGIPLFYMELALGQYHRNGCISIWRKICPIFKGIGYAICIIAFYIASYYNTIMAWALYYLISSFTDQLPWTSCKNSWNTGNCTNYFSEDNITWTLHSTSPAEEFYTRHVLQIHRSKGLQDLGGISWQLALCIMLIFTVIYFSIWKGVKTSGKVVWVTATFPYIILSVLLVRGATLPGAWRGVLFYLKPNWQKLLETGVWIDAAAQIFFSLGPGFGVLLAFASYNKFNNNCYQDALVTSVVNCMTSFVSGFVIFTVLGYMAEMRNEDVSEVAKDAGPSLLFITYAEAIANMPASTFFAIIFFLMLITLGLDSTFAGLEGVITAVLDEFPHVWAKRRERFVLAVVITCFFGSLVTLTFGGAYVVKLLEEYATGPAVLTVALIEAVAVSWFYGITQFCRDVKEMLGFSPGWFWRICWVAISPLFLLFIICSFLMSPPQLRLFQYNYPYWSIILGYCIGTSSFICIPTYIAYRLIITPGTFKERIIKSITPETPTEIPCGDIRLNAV
T12 sequence (P10275 whole entry T878A): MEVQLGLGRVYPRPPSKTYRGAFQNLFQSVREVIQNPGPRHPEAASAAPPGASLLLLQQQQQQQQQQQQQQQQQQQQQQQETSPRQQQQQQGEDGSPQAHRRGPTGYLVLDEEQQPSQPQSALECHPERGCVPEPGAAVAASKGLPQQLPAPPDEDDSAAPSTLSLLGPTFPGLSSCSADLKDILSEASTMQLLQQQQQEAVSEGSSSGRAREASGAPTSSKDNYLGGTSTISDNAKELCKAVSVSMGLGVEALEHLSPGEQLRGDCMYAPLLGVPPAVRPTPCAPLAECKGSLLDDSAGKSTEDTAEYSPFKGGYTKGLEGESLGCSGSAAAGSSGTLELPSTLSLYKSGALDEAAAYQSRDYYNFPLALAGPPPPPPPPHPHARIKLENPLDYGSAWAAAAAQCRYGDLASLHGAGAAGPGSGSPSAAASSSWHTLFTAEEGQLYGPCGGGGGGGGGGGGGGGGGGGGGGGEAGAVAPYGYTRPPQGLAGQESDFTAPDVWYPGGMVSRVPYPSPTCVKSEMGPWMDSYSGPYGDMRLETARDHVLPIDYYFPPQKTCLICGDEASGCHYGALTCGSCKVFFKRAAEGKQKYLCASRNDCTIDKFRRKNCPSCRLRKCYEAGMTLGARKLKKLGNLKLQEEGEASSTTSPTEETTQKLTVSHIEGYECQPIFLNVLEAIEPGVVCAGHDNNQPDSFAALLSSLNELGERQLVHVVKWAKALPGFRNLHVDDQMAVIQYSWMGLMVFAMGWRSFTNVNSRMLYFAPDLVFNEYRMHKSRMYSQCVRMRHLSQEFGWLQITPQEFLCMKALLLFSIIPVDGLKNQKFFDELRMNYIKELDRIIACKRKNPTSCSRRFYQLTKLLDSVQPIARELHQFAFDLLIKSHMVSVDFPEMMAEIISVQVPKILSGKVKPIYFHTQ
T25 sequence (Q8IXJ6 whole entry): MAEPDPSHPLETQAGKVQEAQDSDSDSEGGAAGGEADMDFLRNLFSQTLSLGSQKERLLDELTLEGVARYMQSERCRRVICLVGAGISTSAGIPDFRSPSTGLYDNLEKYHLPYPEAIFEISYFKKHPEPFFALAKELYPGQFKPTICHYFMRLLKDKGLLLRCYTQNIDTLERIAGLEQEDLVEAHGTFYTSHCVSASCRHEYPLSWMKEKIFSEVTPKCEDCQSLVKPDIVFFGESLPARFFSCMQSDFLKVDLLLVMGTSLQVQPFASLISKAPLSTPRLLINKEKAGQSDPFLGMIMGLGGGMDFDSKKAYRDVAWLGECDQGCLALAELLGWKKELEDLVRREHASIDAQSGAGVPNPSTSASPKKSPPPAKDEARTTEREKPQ
T9 sequence (P41146 whole entry): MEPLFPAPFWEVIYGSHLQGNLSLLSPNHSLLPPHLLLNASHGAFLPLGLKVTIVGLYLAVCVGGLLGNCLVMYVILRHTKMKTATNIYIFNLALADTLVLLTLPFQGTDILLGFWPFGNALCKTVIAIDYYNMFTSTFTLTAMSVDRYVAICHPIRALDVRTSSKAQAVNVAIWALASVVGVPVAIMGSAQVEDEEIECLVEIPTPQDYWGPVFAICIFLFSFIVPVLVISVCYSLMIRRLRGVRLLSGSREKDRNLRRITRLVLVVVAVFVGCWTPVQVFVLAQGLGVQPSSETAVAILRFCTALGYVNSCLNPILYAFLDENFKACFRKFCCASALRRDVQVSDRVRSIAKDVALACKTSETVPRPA
T16 sequence (P32238 whole entry): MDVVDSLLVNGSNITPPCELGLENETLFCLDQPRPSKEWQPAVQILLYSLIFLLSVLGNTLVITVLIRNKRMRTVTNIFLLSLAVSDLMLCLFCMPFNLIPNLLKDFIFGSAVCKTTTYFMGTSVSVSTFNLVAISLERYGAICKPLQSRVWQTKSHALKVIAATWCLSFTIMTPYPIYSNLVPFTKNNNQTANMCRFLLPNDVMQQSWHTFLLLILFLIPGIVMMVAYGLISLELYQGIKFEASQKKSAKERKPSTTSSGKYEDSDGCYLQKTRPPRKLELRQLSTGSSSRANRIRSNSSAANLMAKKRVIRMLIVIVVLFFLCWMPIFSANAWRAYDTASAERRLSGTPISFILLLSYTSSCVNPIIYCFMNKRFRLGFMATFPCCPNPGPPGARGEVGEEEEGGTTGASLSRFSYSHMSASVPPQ
T15 sequence (P23975 whole entry): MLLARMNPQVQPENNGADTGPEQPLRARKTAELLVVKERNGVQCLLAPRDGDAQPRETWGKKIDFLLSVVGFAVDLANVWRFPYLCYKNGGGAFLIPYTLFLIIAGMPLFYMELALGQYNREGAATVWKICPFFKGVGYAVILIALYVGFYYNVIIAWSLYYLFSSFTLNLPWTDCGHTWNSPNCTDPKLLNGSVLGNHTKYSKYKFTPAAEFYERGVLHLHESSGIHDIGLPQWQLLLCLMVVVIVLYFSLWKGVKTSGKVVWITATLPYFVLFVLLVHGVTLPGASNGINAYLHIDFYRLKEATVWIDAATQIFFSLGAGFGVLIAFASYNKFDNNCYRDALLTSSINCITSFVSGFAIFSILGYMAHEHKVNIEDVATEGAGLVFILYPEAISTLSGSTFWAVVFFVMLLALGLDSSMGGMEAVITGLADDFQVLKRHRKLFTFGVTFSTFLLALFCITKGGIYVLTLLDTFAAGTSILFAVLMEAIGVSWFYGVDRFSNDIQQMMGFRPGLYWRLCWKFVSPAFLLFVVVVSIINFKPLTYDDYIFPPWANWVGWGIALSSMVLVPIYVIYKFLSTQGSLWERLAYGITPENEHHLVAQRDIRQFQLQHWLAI
T23 sequence (Q15722 whole entry): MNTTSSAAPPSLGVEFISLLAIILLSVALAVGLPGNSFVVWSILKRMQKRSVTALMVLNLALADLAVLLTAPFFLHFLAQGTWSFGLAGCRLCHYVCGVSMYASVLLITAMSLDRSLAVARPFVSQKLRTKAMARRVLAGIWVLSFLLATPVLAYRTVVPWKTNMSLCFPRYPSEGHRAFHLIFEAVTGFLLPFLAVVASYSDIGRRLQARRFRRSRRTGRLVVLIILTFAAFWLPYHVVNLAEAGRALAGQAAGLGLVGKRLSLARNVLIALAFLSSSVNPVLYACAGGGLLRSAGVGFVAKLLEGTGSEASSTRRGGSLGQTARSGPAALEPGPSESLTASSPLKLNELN
T5 sequence (P35367 whole entry): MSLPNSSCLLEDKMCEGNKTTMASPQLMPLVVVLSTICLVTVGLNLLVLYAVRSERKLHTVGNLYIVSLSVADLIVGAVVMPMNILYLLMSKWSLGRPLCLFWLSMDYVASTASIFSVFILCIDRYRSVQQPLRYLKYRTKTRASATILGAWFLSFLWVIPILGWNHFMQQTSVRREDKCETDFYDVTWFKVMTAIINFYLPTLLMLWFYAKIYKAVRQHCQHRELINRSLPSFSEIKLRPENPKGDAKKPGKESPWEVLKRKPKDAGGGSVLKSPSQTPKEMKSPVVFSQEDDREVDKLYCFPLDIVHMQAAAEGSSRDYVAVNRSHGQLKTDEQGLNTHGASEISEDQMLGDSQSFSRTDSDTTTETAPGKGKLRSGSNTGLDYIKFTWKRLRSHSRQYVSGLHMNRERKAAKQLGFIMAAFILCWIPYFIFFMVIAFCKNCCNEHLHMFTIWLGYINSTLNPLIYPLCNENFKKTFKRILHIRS
T4 sequence (P34972 whole entry): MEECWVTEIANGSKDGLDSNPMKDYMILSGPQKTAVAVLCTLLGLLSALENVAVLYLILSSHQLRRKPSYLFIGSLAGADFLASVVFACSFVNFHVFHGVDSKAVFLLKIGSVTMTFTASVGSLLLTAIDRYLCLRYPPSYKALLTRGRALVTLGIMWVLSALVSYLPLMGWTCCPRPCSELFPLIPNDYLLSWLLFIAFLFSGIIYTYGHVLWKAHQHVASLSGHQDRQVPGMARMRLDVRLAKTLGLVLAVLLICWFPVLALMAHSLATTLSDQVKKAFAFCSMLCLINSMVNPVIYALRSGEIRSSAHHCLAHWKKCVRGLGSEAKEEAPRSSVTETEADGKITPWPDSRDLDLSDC

For `c1ccc(Cn2c(-c3ccc(OC[C@H](C4CCNCC4)n4c(-c5ccccc5)nc5ccccc54)cc3)nc3ccccc32)cc1` [Deltarasin, reference compound], the “% Inhibition of Control Specific Binding” value [1] was 19%, the “% Inhibition of Control Specific Binding” value [2] was 61% and the inhibition at 5 µM [3] was 39%. The inhibition at 5 µM [4] was 7%, the “% Inhibition of Control Values” [5] was 2% and the inhibition at 5 µM [6] was 32%. For the same compound, the inhibition at 5 µM [7] was 24%, the “% Inhibition of Control Specific Binding” value [8] was 1% and the inhibition at 5 µM [9] was 78%. For the same compound, the “% Inhibition of Control Specific Binding” value [10] was 57%, the inhibition at 5 µM [11] was 12% and the inhibition at 5 µM [12] was 33%. It also gave an inhibition at 5 µM [13] of 97%, an inhibition at 5 µM [14] of 10% and an inhibition at 5 µM [15] of 9%. The inhibition at 5 µM [16] was 65%, the inhibition at 5 µM [17] was -23% and the inhibition at 5 µM [18] was 21%. The “% Inhibition of Control Specific Binding” value [19] was 2%, the inhibition at 5 µM [20] was 21% and the inhibition at 5 µM [21] was 70%. It also gave an inhibition at 5 µM [22] of 58%, an inhibition at 5 µM [23] of 99% and an inhibition at 5 µM [24] of 37%. For the same compound, the “onset of detectable cell death post treatment” value [25] was ~9 h, the “EGF-induced Erk phosphorylation” value [26] was “reduced” and the “% Inhibition of Control Specific Binding” value [27] was 17%. For the same compound, the “% Inhibition of Control Specific Binding” value [28] was 96%, the inhibition at 5 µM [29] was 89% and the “% Inhibition of Control Values” [30] was 4%. The “% Inhibition of Control Specific Binding” value [31] was -17%, the inhibition at 5 µM [32] was 3% and the inhibition at 5 µM [33] was 38%. The inhibition at 5 µM [34] was 2%, the inhibition at 5 µM [35] was 19% and the inhibition at 5 µM [36] was 15%. The “% Inhibition of Control Specific Binding” value [37] was -10%, the inhibition at 5 µM [38] was 15% and the “cell death in time-lapse microscopy” value [39] was “cell death”.
